# Laboratory results taken from patent US12065443B2, “Compounds and pharmaceutical compositions thereof for the treatment of diseases” (priority 2017, dated 2024).
# Like-named read-outs stand apart in the source and are kept apart here.
# Key:
# [1] = biological target: T1, SIK3 (Homo sapiens, UniProt Q9Y2K2); assay: biochemical; conditions: ADP-Glo SIK kinase assay
# T1 construct: purchased SignalChem S12-11G-100
# Summary of the method: (§1)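 Wells with 1% DMSO or 10 μM staurosporine (final) define the control window. The kinase reaction with substrate and ATP runs 120 min at RT, followed by ADP-Glo detection: ATP depletion (40 min) and ADP-derived luminescence (30 min).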
# [2] = biological target: T2, SIK1 (Homo sapiens, UniProt P57059); assay: biochemical; conditions: ADP-Glo SIK kinase assay
# T2 construct: purchased Carna Biosciences 02-131
# Summary of the method: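 Enzyme–substrate mix was started with ATP and incubated 120 min at RT. ADP formed was quantified by ADP-Glo: 40 min ATP depletion, then 30 min detection reagent converting ADP to ATP for luciferase luminescence, which rises with kinase activity. Controls: 1% DMSO and 10 μM staurosporine (final).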
# [3] = biological target: T3, SIK2 (Homo sapiens, UniProt Q9H0K1); assay: biochemical; conditions: ADP-Glo SIK kinase assay
# T3 construct: purchased ThermoFisher Scientific PV4792
# Summary of the method: as §1
# [4] = test system: LPS driven TNFα secretion in Peripheral Blood Mononuclear Cells (PBMC); assay: cells; format: cell-based; conditions: Homo sapiens, LPS 1 ng/mL, supernatant after 18-20 h, ELISA
# Procedure: This assay measures the inhibition of LPS driven TNFα secretion by a test compound in Peripheral Blood Mononuclear Cells (PBMC), which in turn correlates with SIK inhibition.
# PBMCs are isolated from human blood samples (buffy coats). The buffy coat is aseptically transferred into a 50 mL Falcon™ tube, and diluted 1/2 in Phosphate Buffered Saline (PBS). […] The tubes are centrifuged for 35 min at 400× g in temperature controlled centrifuge, without brake, at 25° C. PBMCs are aspirated from the white interface layer between sample and Lymphoprep. PBMCs are washed five times in PBS. […] The PBMCs are finally seeded at 400,000 PBMC/160 μL/96-well.
# A compound dilution plate is made in 100% DMSO by 3-fold dilution of 10 mM stock solution of test compound. An intermediate dilution plate (10× final concentration) is made by diluting the compound dilution plate 50-fold in RPMI medium.
# 20 μL of the 10× final concentration compound is added to the cells and incubated for 1 hour at 37° C. before addition of trigger. No trigger conditions/trigger conditions are spiked with equal final DMSO concentrations of 0.2% DMSO. 20 μL of 10×LPS (final concentration 1 ng/mL) solution are added to all wells except for the ‘no trigger wells’ where 20 μL medium is added. Supernatant is collected after 18-20 h for IL-10 and TNFα determination using ELISA.
# The plate is then washed once with PBST (PBS+0.05% Tween20) and once with PBS followed by the addition of 100 μL of blocking buffer (1% Bovine Serum Albumin (BSA)-5% Sucrose) and plates are sealed and incubated for at least 4 h at RT. After washing the plate once with PBST and once with PBS, 40 μL of standard or sample are added (TNFα standard curve is prepared using a 1/2 serial dilution starting from 16000 pg/mL; dilutions are made in dilution buffer (PBS+1% BSA)). Plates are washed twice with PBST, and once with PBS, after which 35 μL of the detection antibody is added (final concentration 0.25 μg/mL diluted in dilution buffer) and plates are incubated for at least 2 h at RT. Plates are washed twice with PBST, and once with PBS, where after 35 μL of Strep-HRP conjugate (0.5 μg/mL final concentration diluted in dilution buffer) is added. Plates are incubated in the dark, at RT for at least 45 min but no longer than 1 hour. Plates are washed twice with PBST, and once with PBS. Thereafter, 50 μL of luminol substrate is added to each well (prepared according to manufacturer's instructions), and incubated for 5 min at RT protected from light.
# To measure the inhibition of LPS induced TNFα, percentage inhibition (PIN) values are calculated for all concentrations tested, compared to controls.
# PIN values are plotted in concentration-response and EC50 values are derived using GraphPad Prism Software, applying 4-parameter nonlinear regression (sigmoidal) curve fitting.
# [5] = biological target: T1, SIK3; assay: biochemical
# Summary of the method: (§2)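 Radiometric assay: SIK1, SIK2 or SIK3 phosphorylates AMARA peptide using unlabelled plus [^33P]-γ-ATP, reaction started by ATP addition. Stopped with 150 mM phosphoric acid, filter-harvested and washed; incorporated ^33P counted by scintillation. Controls: 1% DMSO and 10 μM staurosporine final.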
# [6] = biological target: T2, SIK1; assay: biochemical; conditions: 33P radioactive SIK kinase assay, AMARA peptide, 10 μM ATP; read-out: SIK1 IC50
# Summary of the method: as §2
# [7] = biological target: T3, SIK2; assay: biochemical; conditions: 33P radioactive SIK kinase assay, AMARA peptide, 10 μM ATP
# Summary of the method: as §2
# [8] = test system: LPS-induced TNFα secretion in monocyte-derived macrophages (MdM); assay: MdM assay: LPS-triggered TNFα (ELISA); format: cell-based, human; conditions: Homo sapiens, Macrophage, LPS-triggered TNFα inhibition
# Summary of the method: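 TNFα ELISA read on supernatants harvested 20 h after LPS (final 200 ng/mL) stimulation. Cells were day-10 macrophages derived from human blood CD14+ monocytes, exposed to 3-fold compound dilutions for 1 h at 37 °C beforehand, with DMSO held at 0.2%.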
# [9] = test system: LPS triggered IL-10 secretion in monocyte-derived macrophages (MdM); assay: MdM assay: LPS-triggered IL-10 (ELISA); format: cell-based, human; conditions: maximal fold change vs LPS only, median across assays
# Summary of the method: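 Readout is IL-10FCmax, the median across at least two runs of the highest fold change over LPS-only, from ELISA absorbance at 450 nm of 2 h supernatants. Macrophages came from day-10 cultures of human CD14+ monocytes, were given compound for 1 h at 37° C in 0.2% DMSO, then 200 ng/mL LPS.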
# T2 sequence (P57059 whole entry): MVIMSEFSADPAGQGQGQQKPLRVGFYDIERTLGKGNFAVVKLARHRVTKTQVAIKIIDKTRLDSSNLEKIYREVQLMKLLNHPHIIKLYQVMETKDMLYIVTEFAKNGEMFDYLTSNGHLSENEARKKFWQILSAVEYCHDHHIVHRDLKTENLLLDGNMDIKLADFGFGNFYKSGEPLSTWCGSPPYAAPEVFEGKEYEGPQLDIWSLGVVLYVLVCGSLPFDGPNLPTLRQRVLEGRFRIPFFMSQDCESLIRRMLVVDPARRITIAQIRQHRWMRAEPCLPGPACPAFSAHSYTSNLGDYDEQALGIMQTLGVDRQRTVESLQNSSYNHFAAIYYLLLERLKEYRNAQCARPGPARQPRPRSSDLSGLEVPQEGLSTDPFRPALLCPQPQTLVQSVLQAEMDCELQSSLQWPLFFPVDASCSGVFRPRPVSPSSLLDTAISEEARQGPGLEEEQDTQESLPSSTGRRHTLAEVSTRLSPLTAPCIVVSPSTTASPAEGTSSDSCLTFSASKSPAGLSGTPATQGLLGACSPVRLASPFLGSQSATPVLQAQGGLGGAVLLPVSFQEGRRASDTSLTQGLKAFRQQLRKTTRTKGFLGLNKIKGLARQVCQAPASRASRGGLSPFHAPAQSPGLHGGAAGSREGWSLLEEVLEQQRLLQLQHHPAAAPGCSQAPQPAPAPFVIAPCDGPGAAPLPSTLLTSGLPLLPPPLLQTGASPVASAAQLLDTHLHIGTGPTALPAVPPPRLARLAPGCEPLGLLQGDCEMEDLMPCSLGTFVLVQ
# T1 sequence (Q9Y2K2 whole entry): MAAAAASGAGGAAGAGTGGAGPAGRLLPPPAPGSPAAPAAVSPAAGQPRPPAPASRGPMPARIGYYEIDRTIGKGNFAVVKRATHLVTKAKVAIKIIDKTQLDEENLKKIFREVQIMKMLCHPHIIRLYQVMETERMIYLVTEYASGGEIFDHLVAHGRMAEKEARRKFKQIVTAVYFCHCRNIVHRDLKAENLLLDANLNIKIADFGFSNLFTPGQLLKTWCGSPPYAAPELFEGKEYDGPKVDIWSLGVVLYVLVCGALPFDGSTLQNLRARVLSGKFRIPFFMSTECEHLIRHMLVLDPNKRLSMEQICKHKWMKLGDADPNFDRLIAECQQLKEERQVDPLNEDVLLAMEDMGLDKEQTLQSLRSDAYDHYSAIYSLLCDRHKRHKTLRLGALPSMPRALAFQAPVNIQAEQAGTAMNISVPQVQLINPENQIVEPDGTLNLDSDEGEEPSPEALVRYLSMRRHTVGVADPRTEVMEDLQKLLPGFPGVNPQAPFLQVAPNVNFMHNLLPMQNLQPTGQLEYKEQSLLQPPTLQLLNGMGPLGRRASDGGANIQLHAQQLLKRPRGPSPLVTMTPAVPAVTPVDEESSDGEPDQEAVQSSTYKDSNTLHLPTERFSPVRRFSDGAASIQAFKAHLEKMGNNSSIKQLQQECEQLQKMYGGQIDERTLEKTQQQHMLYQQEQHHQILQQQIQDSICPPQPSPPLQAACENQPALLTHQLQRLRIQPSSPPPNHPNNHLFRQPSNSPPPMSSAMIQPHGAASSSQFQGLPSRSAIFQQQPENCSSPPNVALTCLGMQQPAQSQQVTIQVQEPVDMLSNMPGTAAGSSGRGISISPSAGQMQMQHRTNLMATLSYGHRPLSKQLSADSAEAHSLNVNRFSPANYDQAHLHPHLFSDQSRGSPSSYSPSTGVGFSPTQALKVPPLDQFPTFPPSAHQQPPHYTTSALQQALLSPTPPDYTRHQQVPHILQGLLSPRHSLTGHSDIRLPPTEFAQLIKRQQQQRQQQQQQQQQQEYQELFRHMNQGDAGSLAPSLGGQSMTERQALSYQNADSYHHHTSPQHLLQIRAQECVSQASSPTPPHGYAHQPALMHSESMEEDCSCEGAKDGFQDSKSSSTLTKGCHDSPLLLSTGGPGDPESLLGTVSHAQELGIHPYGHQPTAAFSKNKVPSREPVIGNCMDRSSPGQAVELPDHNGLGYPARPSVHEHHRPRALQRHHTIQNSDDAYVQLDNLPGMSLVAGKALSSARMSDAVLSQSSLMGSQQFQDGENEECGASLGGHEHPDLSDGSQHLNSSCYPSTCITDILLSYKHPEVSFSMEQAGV
# T3 sequence (Q9H0K1 whole entry): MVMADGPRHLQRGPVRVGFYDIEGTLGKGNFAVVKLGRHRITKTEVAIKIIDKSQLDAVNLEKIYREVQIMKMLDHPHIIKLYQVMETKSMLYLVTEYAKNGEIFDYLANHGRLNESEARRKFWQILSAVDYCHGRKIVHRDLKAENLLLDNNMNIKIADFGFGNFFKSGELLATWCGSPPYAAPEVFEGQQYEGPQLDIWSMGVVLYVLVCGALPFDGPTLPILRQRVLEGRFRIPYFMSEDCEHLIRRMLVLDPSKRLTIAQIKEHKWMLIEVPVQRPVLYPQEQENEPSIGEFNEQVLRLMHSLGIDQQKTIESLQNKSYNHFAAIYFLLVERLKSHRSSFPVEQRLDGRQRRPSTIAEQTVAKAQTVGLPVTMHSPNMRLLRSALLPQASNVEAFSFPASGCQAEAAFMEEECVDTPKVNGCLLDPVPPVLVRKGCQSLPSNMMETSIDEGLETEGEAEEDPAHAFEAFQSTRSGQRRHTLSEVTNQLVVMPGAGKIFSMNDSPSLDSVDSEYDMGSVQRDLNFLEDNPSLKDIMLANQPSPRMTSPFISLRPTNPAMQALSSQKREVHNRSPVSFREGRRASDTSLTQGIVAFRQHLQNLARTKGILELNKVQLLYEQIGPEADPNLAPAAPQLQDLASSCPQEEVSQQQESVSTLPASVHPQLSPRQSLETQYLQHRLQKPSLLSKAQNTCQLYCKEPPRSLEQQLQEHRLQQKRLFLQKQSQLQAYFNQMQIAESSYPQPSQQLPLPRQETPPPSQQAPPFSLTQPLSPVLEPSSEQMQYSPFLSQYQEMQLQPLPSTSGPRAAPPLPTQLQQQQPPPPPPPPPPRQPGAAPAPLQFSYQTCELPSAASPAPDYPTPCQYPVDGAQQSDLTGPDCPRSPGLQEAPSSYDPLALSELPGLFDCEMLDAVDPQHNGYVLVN
Compound,IC50 [1],IC50 [2],IC50 [3],EC50 [4],IC50 [5],IC50 [6],IC50 [7],EC50 [8],IL-10 FCmax median [9]
"CCN1Cc2cc(-c3cnc4cc(-c5cnn(C)c5)ccn34)cc(OC)c2C1=O [compound 176, 2-ethyl-7-methoxy-5-[7-(1-methylpyrazol-4-yl)imidazo[1,2-a]pyridin-3-yl]isoindolin-1-one]",0.01 to 10 nM,10 to 100 nM,0.01 to 10 nM,0.1 to 100 nM,10 to 100 nM,10 to 100 nM,10 to 100 nM,100 to 1000 nM,–
"COc1cc(-c2cnc3cc(-c4cnn(C)c4)ccn23)cc(OC)c1C(=O)N1CC(F)(F)C1 [Cpd 173, (3,3-difluoroazetidin-1-yl)-[2,6-dimethoxy-4-[7-(1-methylpyrazol-4-yl)imidazo[1,2-a]pyridin-3-yl]phenyl]methanone]",0.01 to 10 nM,0.01 to 10 nM,0.01 to 10 nM,0.1 to 100 nM,0.01 to 10 nM,10 to 100 nM,0.01 to 10 nM,0.1 to 100 nM,++ (>1.5-4.5)
"COc1cc(-n2cnc3cc(-c4cnn(C5CN(C)C5)c4)ccc32)cc(OC)c1C(=O)NCC(F)(F)F [Cpd 98, 2,6-dimethoxy-4-[5-[1-(1-methylazetidin-3-yl)pyrazol-4-yl]benzimidazol-1-yl]-N-(2,2,2-trifluoroethyl)benzamide]",0.01 to 10 nM,0.01 to 10 nM,0.01 to 10 nM,0.1 to 100 nM,0.01 to 10 nM,10 to 100 nM,0.01 to 10 nM,0.1 to 100 nM,++ (>1.5-4.5)
"COc1cc(-c2cnc3cc(-c4cnn(C)c4)ccn23)cc(OC)c1C(=O)N[C@H](C)C(F)(F)F [Cpd 174, 2,6-dimethoxy-4-[7-(1-methylpyrazol-4-yl)imidazo[1,2-a]pyridin-3-yl]-N-[(1R)-2,2,2-trifluoro-1-methyl-ethyl]benzamide]",0.01 to 10 nM,0.01 to 10 nM,0.01 to 10 nM,0.1 to 100 nM,0.01 to 10 nM,0.01 to 10 nM,0.01 to 10 nM,0.1 to 100 nM,++ (>1.5-4.5)
"COc1cc(-c2cnc3cc(-c4cnn(C)c4)ccn23)cc(OC)c1C(=O)NC1CC1 [compound 102, N-cyclopropyl-2,6-dimethoxy-4-[7-(1-methylpyrazol-4-yl)imidazo[1,2-a]pyridin-3-yl]benzamide]",–,–,–,0.1 to 100 nM,0.01 to 10 nM,0.01 to 10 nM,0.01 to 10 nM,0.1 to 100 nM,++ (>1.5-4.5)
"COc1cc(-n2cnc3cc(-c4cnn(C5COC5)c4)ccc32)cc(OC)c1C(=O)NCC(F)(F)F [compound 85, 2,6-dimethoxy-4-[5-[1-(oxetan-3-yl)pyrazol-4-yl]benzimidazol-1-yl)-N-(2,2,2-trifluoroethyl)benzamide]",–,–,–,0.1 to 100 nM,0.01 to 10 nM,10 to 100 nM,0.01 to 10 nM,0.1 to 100 nM,++ (>1.5-4.5)
COc1cc(-c2cnc3cc(-c4cnn(C)c4)ccn23)cc(OC)c1C(=O)NCC(F)(F)F [Cpd 88],0.01 to 10 nM,0.01 to 10 nM,0.01 to 10 nM,0.1 to 100 nM,0.01 to 10 nM,0.01 to 10 nM,0.01 to 10 nM,0.1 to 100 nM,++ (>1.5-4.5)
"CCNC(=O)c1c(OC)cc(-n2cnc3cc(-c4cnn(CCN5CCOCC5)c4)ccc32)cc1OC(F)F [compound 57, 2-(difluoromethoxy)-N-ethyl-6-methoxy-4-[5-[1-(2-morpholinoethyl)pyrazol-4-yl]benzimidazol-1-yl]benzamide]",–,–,–,0.1 to 100 nM,0.01 to 10 nM,10 to 100 nM,0.01 to 10 nM,100 to 1000 nM,++ (>1.5-4.5)
"COc1cc(-c2cnc3cc(-c4cnn(C)c4)ccn23)cc(F)c1C(=O)NCC(F)(F)F [compound 203, 2-fluoro-6-methoxy-4-[7-(1-methylpyrazol-4-yl)imidazo[1,2-a]pyridin-3-yl]-N-(2,2,2-trifluoroethyl)benzamide]",–,–,–,0.1 to 100 nM,0.01 to 10 nM,10 to 100 nM,0.01 to 10 nM,0.1 to 100 nM,+++ (>4.5)
"COc1cc(-n2cnc3cc(-c4cnn(C)c4)ccc32)cc(OC)c1C(=O)N1CC(C#N)C1 [compound 192, 1-[2,6-dimethoxy-4-[5-(1-methylpyrazol-4-yl)benzimidazol-1-yl]benzoyl]azetidine-3-carbonitrile]",0.01 to 10 nM,10 to 100 nM,0.01 to 10 nM,100 to 1000 nM,10 to 100 nM,10 to 100 nM,10 to 100 nM,100 to 1000 nM,–
"COc1cc(-c2cnc3cc(-c4cnn(C)c4)ccn23)cc(OC)c1C(=O)NCC#N [compound 122, N-(cyanomethyl)-2,6-dimethoxy-4-[7-(1-methylpyrazol-4-yl)imidazo[1,2-a]pyridin-3-yl]benzamide]",–,–,–,0.1 to 100 nM,0.01 to 10 nM,0.01 to 10 nM,0.01 to 10 nM,0.1 to 100 nM,++ (>1.5-4.5)
"CCNC(=O)c1c(OC)cc(-n2cnc3cc(-c4cnn(C)c4)cnc32)cc1OC(F)F [compound 177, 2-(difluoromethoxy)-N-ethyl-6-methoxy-4-[6-(1-methylpyrazol-4-yl)imidazo[4,5-b]pyridin-3-yl]benzamide]",0.01 to 10 nM,10 to 100 nM,0.01 to 10 nM,0.1 to 100 nM,10 to 100 nM,10 to 100 nM,10 to 100 nM,100 to 1000 nM,–
"COc1cc(-n2cnc3cc(-c4ccnc(N5CCN(C)CC5)c4)ccc32)cc(OC)c1C(=O)NCC(F)(F)F [compound 120, 2,6-dimethoxy-4-[5-[2-(4-methylpiperazin-1-yl)-4-pyridyl]benzimidazol-1-yl]-N-(2,2,2-trifluoroethyl)benzamide]",0.01 to 10 nM,10 to 100 nM,0.01 to 10 nM,0.1 to 100 nM,0.01 to 10 nM,10 to 100 nM,10 to 100 nM,100 to 1000 nM,++ (>1.5-4.5)
"COc1cc(-c2cnc3cc(-c4cnn(C)c4)ccn23)cc(OC(F)F)c1C(=O)NC1CC1 [Cpd 124, N-cyclopropyl-2-(difluoromethoxy)-6-methoxy-4-[7-(1-methylpyrazol-4-yl)imidazo[1,2-a]pyridin-3-yl]benzamide]",–,–,–,0.1 to 100 nM,0.01 to 10 nM,0.01 to 10 nM,0.01 to 10 nM,0.1 to 100 nM,++ (>1.5-4.5)
"CCNC(=O)c1c(OC)cc(-c2cnc3cc(-c4cnn(C)c4)ccn23)cc1OC(F)F [compound 116, 2-(difluoromethoxy)-N-ethyl-6-methoxy-4-[7-(1-methylpyrazol-4-yl)imidazo[1,2-a]pyridin-3-yl]benzamide]",–,–,–,0.1 to 100 nM,0.01 to 10 nM,0.01 to 10 nM,0.01 to 10 nM,0.1 to 100 nM,++ (>1.5-4.5)
"COc1cc(-n2cnc3cc(-c4cnn(C5CC5)c4)ccc32)cc(OC)c1C(=O)NCC(F)(F)F [compound 96, 4-[5-(l-cyclopropylpyrazol-4-yl)benzimidazol-1-yl]-2,6-dimethoxy-N-(2,2,2-trifluoroethyl)benzamide]",–,–,–,0.1 to 100 nM,0.01 to 10 nM,10 to 100 nM,0.01 to 10 nM,0.1 to 100 nM,++ (>1.5-4.5)
